Assay results from ChEMBL document CHEMBL1201862, “PubChem BioAssay data set” (2004).
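1) Cells in 96-well plates. 2) Compound, 48 h, 5 concentrations. 3) Linear interpolation between surrounding doses. 4) Unreached endpoint = highest concentration. The concentration for 50% growth inhibition is given as GI50.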 Activity calls are given as the source filed them. Rule as the data show it: active = GI50 up to about 1.1 µM and inactive = higher.

Key:
Test in all cases: NCI-60 cell line screen, 48 h
HCT-15 = system: HCT-15
OVCAR-4 = system: OVCAR-4
PC-3 = system: PC-3
CAKI-1 = system: CAKI-1
CCRF-CEM = system: CCRF-CEM
RPMI-8226 = system: RPMI-8226
IGROV-1 = system: IGROV-1
DU-145 = system: DU-145
OVCAR-5 = system: OVCAR-5
HT-29 = system: HT-29
MOLT-4 = system: MOLT-4
UACC-62 = system: UACC-62
EKVX = system: EKVX
SK-MEL-2 = system: SK-MEL-2
T47D = system: T47D
HOP-62 = system: HOP-62
LOX IMVI = system: LOX IMVI
COLO 205 = system: COLO 205
SNB-75 = system: SNB-75
Malme-3M = system: Malme-3M
NCI-H522 = system: NCI-H522
Hs-578T = system: Hs-578T
HOP-92 = system: HOP-92
K562 = system: K562
MDA-N = system: MDA-N
A549 = system: A549
NCI/ADR-RES = system: NCI/ADR-RES
UO-31 = system: UO-31
NCI-H23 = system: NCI-H23
KM12 = system: KM12
OVCAR-8 = system: OVCAR-8
SK-OV-3 = system: SK-OV-3
UACC-257 = system: UACC-257
HL-60 = system: HL-60
SK-MEL-5 = system: SK-MEL-5
NCI-H226 = system: NCI-H226
786-0 = system: 786-0
SR = system: SR
SF-268 = system: SF-268
SF-539 = system: SF-539
A498 = system: A498
SK-MEL-28 = system: SK-MEL-28
BT-549 = system: BT-549
HCT-116 = system: HCT-116
OVCAR-3 = system: OVCAR-3
HCC 2998 = system: HCC 2998
SNB-19 = system: SNB-19
MDA-MB-231 = system: MDA-MB-231
TK-10 = system: TK-10
NCI-H460 = system: NCI-H460
ACHN = system: ACHN
MCF7 = system: MCF7
SF-295 = system: SF-295
U-251 = system: U-251
MDA-MB-435 = system: MDA-MB-435
M14 = system: M14
SN12C = system: SN12C
SW-620 = system: SW-620
RXF 393 = system: RXF 393

Measured: GI50

CCOC(=O)c1c(Br)c(-c2ccc([N+](=O)[O-])cc2)c(Br)n1C
> 10 µM: HCT-15
inactive: OVCAR-4 > 10 µM | PC-3 > 10 µM | CAKI-1 > 10 µM | CCRF-CEM > 10 µM | RPMI-8226 > 10 µM | IGROV-1 > 10 µM | DU-145 > 10 µM | OVCAR-5 > 10 µM | HT-29 > 10 µM | MOLT-4 > 10 µM | UACC-62 7.28 µM | EKVX 9.55 µM | SK-MEL-2 > 10 µM | T47D > 10 µM | HOP-62 > 10 µM | LOX IMVI > 10 µM | COLO 205 > 10 µM | SNB-75 2.49 µM | Malme-3M > 10 µM | NCI-H522 > 10 µM | Hs-578T 5.06 µM | HOP-92 2.47 µM | K562 > 10 µM | MDA-N > 10 µM | A549 > 10 µM | NCI/ADR-RES > 10 µM | UO-31 9.16 µM | NCI-H23 > 10 µM | KM12 > 10 µM | OVCAR-8 > 10 µM | SK-OV-3 > 10 µM | UACC-257 > 10 µM | HL-60 > 10 µM | SK-MEL-5 > 10 µM | NCI-H226 > 10 µM | 786-0 > 10 µM | SR > 10 µM | SF-268 > 10 µM | SF-539 > 10 µM | A498 > 10 µM | SK-MEL-28 > 10 µM | BT-549 > 10 µM | HCT-116 > 10 µM | OVCAR-3 > 10 µM | HCC 2998 > 10 µM | SNB-19 > 10 µM | MDA-MB-231 > 10 µM | TK-10 > 10 µM | NCI-H460 > 10 µM | ACHN > 10 µM | MCF7 > 10 µM | SF-295 > 10 µM | U-251 > 10 µM | MDA-MB-435 > 10 µM | M14 > 10 µM | SN12C 9.06 µM

O=C1Nc2ccccc2S/C1=C\c1cccc(C(F)(F)F)c1
> 100 µM: HCT-15
inactive: OVCAR-4 > 100 µM | PC-3 > 100 µM | CAKI-1 3.01 µM | CCRF-CEM > 100 µM | RPMI-8226 > 100 µM | IGROV-1 > 100 µM | DU-145 > 100 µM | OVCAR-5 > 100 µM | HT-29 > 100 µM | MOLT-4 > 100 µM | UACC-62 > 100 µM | EKVX > 100 µM | SK-MEL-2 > 100 µM | T47D 82.4 µM | HOP-62 > 100 µM | LOX IMVI > 100 µM | COLO 205 > 100 µM | SNB-75 > 100 µM | Malme-3M > 100 µM | NCI-H522 > 100 µM | Hs-578T > 100 µM | SW-620 > 100 µM | HOP-92 60.1 µM | K562 > 100 µM | MDA-N > 100 µM | A549 > 100 µM | NCI/ADR-RES > 100 µM | UO-31 > 100 µM | KM12 > 100 µM | OVCAR-8 > 100 µM | SK-OV-3 > 100 µM | UACC-257 > 100 µM | HL-60 5.01 µM | SK-MEL-5 > 100 µM | NCI-H226 > 100 µM | 786-0 > 100 µM | SR > 100 µM | SF-268 > 100 µM | SF-539 > 100 µM | A498 > 100 µM | SK-MEL-28 > 100 µM | BT-549 > 100 µM | HCT-116 > 100 µM | OVCAR-3 > 100 µM | SNB-19 > 100 µM | MDA-MB-231 7.85 µM | TK-10 > 100 µM | NCI-H460 > 100 µM | RXF 393 > 100 µM | ACHN > 100 µM | SF-295 > 100 µM | U-251 > 100 µM | MDA-MB-435 > 100 µM | M14 > 100 µM | SN12C > 100 µM
active: MCF7 0.467 µM

c1ccc(C(=NNc2cnc3ccccc3n2)c2ccccn2)cc1
0.424 µM: HCT-15
inactive: OVCAR-4 3.89 µM | PC-3 2.56 µM | RPMI-8226 2.02 µM | IGROV-1 1.75 µM | DU-145 3.3 µM | OVCAR-5 2.59 µM | UACC-62 3 µM | SK-MEL-2 9.77 µM | HOP-62 7.26 µM | SNB-75 5.85 µM | Hs-578T 12 µM | HOP-92 5.6 µM | K562 1.2 µM | MDA-N 9.64 µM | A549 3.15 µM | NCI-H23 2.61 µM | KM12 4.08 µM | SK-OV-3 3.78 µM | SK-MEL-5 1.42 µM | NCI-H226 4.9 µM | 786-0 1.38 µM | SF-268 1.52 µM | SF-539 1.58 µM | A498 20.9 µM | SK-MEL-28 12.3 µM | BT-549 8.18 µM | HCT-116 1.76 µM | HCC 2998 4.41 µM | SNB-19 6.43 µM | NCI-H460 1.26 µM | RXF 393 7.59 µM | SF-295 2.93 µM | U-251 2.31 µM | MDA-MB-435 3.96 µM
active: CAKI-1 0.382 µM | CCRF-CEM 0.208 µM | HT-29 0.048 µM | MOLT-4 0.139 µM | EKVX 0.269 µM | T47D 0.0188 µM | COLO 205 0.119 µM | Malme-3M 0.532 µM | NCI-H522 0.419 µM | SW-620 0.423 µM | NCI/ADR-RES 0.494 µM | UO-31 0.76 µM | OVCAR-8 0.352 µM | UACC-257 0.418 µM | HL-60 0.109 µM | SR 1.01 µM | OVCAR-3 0.608 µM | MDA-MB-231 1 µM | ACHN 0.405 µM | MCF7 0.371 µM | M14 0.425 µM | SN12C 0.991 µM
